Patent US7906300B2, “Methods for diagnosing an attention-deficit/Hyperactivity disorder” (PsychNostics, LLC, priority 2005, dated 2011)

Key:
Format in all cases: cell-based, human
lymphoblasts [1] = assay: Rate of drop in membrane potential (repolarization rate) of lymphoblasts, with/without compound; conditions: 30 min, K+-free and K+-containing buffer
Procedure: (§1) The membrane potentials of the bipolar I cells shown in Table 4 above (as well as in all other experiments, except where indicated) were measured using the following protocol. The cells cultured in the media described above were centrifuged at 210 g for 5 minutes at room temperature, then suspended in 3 ml of K^+-containing stock buffer (5 mM KCl, 4 mM NaHCO3, 5 mM HEPES, 134 mM NaCl, 2.3 mM CaCl2, and 5 mM glucose). The cells were counted and the desired number of cells were again suspended in the K^+-containing buffer. The membrane potentials were measured using 3,3′-dihexyloxacarbocyanine iodide DiOC6(3), a cell-permeant, voltage sensitive, green-fluorescent dye (Molecular Probes Inc. Eugene, Oreg. USA). […]
(§2) A fluorescence spectrometer (F2500 Hitachi, Japan) was used for the measurement of the membrane potential by measuring the fluorescence intensity of DiOC6(3), which is directly proportional to the membrane potential. The intensity of fluorescence was measured at an excitation wavelength of 488 nm and an output wavelength of 540 nm. […]
The rate of drop in membrane potential after incubation with the protein kinase C (PKC) activator, phorbol 12-myristate 13-acetate (PMA), was compared in affected cells to that of unaffected cells. The membrane potential of these cells was determined by measuring the fluorescence intensity as described above. […]

lymphoblasts [2] = assay: Membrane potential of lymphoblasts by DiOC6(3) fluorescence intensity ratio, with/without compound
Text: Three groups of immortalized lymphoblast samples were obtained from the Human Genetic Mutant Cell Repository (Coriell Institute for Medical Research, Camden N.J.). The samples are shown in Table 4 below and included six from affected (bipolar I disorder) patients (A1 through A6), six from their siblings (S1 through S6), and six from unrelated normal control subjects matched by age and sex (N1 through N6).
as §1, §2
Membrane potential was expressed according to fluorescence intensity using the following equation: I=CV, wherein I is the fluorescence intensity of a lipophilic fluorescent dye DiOC6(3) being only one example of such a dye); V is the voltage or membrane potential; and C is a constant that can vary depending on a number of factors such as, but not limited to, temperature, lamp intensity, number of cells, concentration of the fluorescent dye, incubation time, and lipid composition of cells used. […]
Membrane potentials were also measured in K^+-free buffer to enable comparison with membrane potentials in K^+-containing buffer. […]

whole blood cells [3] = assay: Membrane potential ratio of whole blood cells, clinical trials (DiOC6(3) fluorescence); conditions: for ratio of intensity in K+-free buffer with 30 μM ethacrynate to intensity in K+-containing buffer without ethacrynate, Median: plate reader
Procedure: Because the volume of blood required to collect enough lymphocytes was beyond that permitted by the current protocol, the membrane potential of whole blood cells was determined. The volume of whole blood required was approximately 1 ml. The blood samples were kept on ice until they were stored at 4° C. All of the samples were tested within 48 hours.
Whole blood samples drawn from patients and controls were suspended in K^+-containing buffer without ethacrynate and in K^+-free buffer with 30 μM ethacrynate or with 100 mM sorbitol. The fluorescent dye DiOC6(3) was added to both suspensions and incubated for 30 minutes. The cell suspensions loaded with the dye were centrifuged, drained and resuspended in the respective buffers. The fluorescence intensity was measured for 10 seconds and the ratio of the intensity in K^+-free buffer to the intensity in K^+-containing buffer was calculated.
Whole blood samples drawn from patients and controls were suspended both in K^+-containing buffer and in K^+-free buffer with 30 μM ethacrynate or with 100 μM sorbitol. The fluorescent dye DiOC6(3) was added to both suspensions and incubated for 30 minutes. The cell suspensions loaded with the dye were centrifuged, drained and resuspended in the respective buffers. The fluorescence intensity was measured for 10 seconds and the ratio of the intensity in K^+-free buffer to the intensity in K^+-containing buffer was calculated.
An individual patient's cell sample was tested as described herein and six to twelve ratios were calculated. These values were treated as a group and compared with a normal control group (negative control) and a bipolar group (positive control).
(§3) Cells from control, bipolar I and bipolar II individuals were compared amongst each other as described herein. Whole blood samples drawn from patients and controls and aliquots were suspended either in K^+-containing buffer without ethacrynate, or in K^+-free buffer with 30 μM ethacrynate. The fluorescent dye DiOC6(3) was added to the suspensions and incubated for 30 minutes. The cell suspensions loaded with the dye were centrifuged, drained and resuspended in the respective buffers. The fluorescence intensity was measured for 10 seconds and the ratio of the intensity in K^+-free buffer to the intensity in K^+-containing buffer was calculated. Plate Reader (PerkinsElmer Victor V) was used for intensity measurements).
as §3, with “ADHD” for “bipolar II”

whole blood cells [4] = assay: as above; conditions: open trial; bipolar patients; 100 mM sorbitol; FIG. 13

SMILES: CCCCCCCCCCCCCC(=O)O[C@@H]1[C@@H](C)[C@@]2(O)[C@@H](C=C(CO)C[C@]3(O)C(=O)C(C)=C[C@@H]23)[C@@H]2C(C)(C)[C@]12OC(C)=O [PMA, phorbol 12-myristate 13-acetate]
- relative ratio of repolarization rates in affected cells compared with unaffected cells (lymphoblasts [1]; 2 μM PMA, P=0.046, FIG. 10): significantly lower

SMILES: C=C(CC)C(=O)c1ccc(OCC(=O)O)c(Cl)c1Cl [ethacrynate]
- relative intensity ratio of affected cells compared with unaffected cells (lymphoblasts [2]; 30 μM ethacrynate, K+-free vs K+-containing buffer, t-test P=0.009, FIG. 5): significantly higher
- intensity ratio (membrane potential with ethacrynate/without ethacrynate) of affected cells compared with unaffected cells (lymphoblasts [2]; K+-free buffer, 30 μM ethacrynate, t-test P=0.032, FIG. 6): significantly higher
- ratio of fluorescence intensity in K+-free buffer containing 30 μM ethacrynate to that in K+-containing buffer without ethacrynate, Mean (whole blood cells [3]; blind clinical trial, Controls): 0.850
- ratio of fluorescence intensity in K+-free buffer containing 30 μM ethacrynate to that in K+-containing buffer without ethacrynate, Median (whole blood cells [3]; blind clinical trial, Controls): 0.850
- ratio of fluorescence intensity in K+-free buffer containing 30 μM ethacrynate to that in K+-containing buffer without ethacrynate, Mean (whole blood cells [3]; blind clinical trial, Schizophr.): 0.870
- ratio of fluorescence intensity in K+-free buffer containing 30 μM ethacrynate to that in K+-containing buffer without ethacrynate, Mean (whole blood cells [3]; individual Patient A (diagnosed bipolar)): 0.766
- ratio of fluorescence intensity in K+-free buffer containing 30 μM ethacrynate to that in K+-containing buffer without ethacrynate, Mean (whole blood cells [3]; open clinical trial, Bipolars): 0.780
- ratio of intensity in K+-free buffer with 30 μM ethacrynate to intensity in K+-containing buffer without ethacrynate, Median (whole blood cells [3]; ADHD group): 0.808
- ratio of intensity in K+-free buffer with 30 μM ethacrynate to intensity in K+-containing buffer without ethacrynate, Median (whole blood cells [3]; BPD I group): 0.606
- ratio of intensity in K+-free buffer with 30 μM ethacrynate to intensity in K+-containing buffer without ethacrynate, Median (whole blood cells [3]; BPD II group): 0.648
- ratio of intensity in K+-free buffer with 30 μM ethacrynate to intensity in K+-containing buffer without ethacrynate, Median (whole blood cells [3]; Negative (control) group): 0.676
- relative rate of repolarization in affected cells compared with unaffected cells (lymphoblasts [1]; 30 μM ethacrynate, P=0.041, FIG. 7): significantly higher

SMILES: CC[C@@]1([C@@H]2O[C@@H]([C@H]3O[C@@](O)(CO)[C@H](C)C[C@@H]3C)C[C@@H]2C)CC[C@H]([C@]2(C)CC[C@]3(C[C@H](O)[C@@H](C)[C@@H]([C@@H](C)[C@@H](OC)[C@H](C)C(=O)O)O3)O2)O1 [monensin]
- intensity ratio (membrane potential with monensin/without monensin) of affected cells compared with unaffected cells (lymphoblasts [2]; K+-free buffer, 10 μM monensin, 30 min, t-test P=0.009, FIG. 8): significantly lower

SMILES: OC[C@@H](O)[C@@H](O)[C@H](O)[C@@H](O)CO [sorbitol]
- fluorescence intensity ratio of bipolar cells with sorbitol in K+-free buffer, compared with ethacrynate (whole blood cells [4]): comparable to the results with ethacrynate
